# Results as given in publication PMC10872723 (Journal of medicinal chemistry, 2023).
# Like-named read-outs stand apart in the source and are kept apart here.
# Columns and labels:
# [1] = biological target: VCB E3 ligase complex (Homo sapiens, UniProt P40337); assay: Isothermal titration calorimetry; format: binding
# [2] = test system: WDR5-11–VCB ternary complex; assay: ITC binding cooperativity, VCB into WDR5-11 binary complex; design: species or system human; conditions: VCB binding to the WDR5-11 binary complex vs VCB into 11
# [3] = biological target: T1, WDR5 (Homo sapiens, UniProt P61964); assay: Western blotting of WDR5 degradation in PDAC cell lines; format: cell-based; conditions: 18 h; for WDR5 degradation (WB): MIA PaCa-2, BxPC-3, HPAF-II, Panc10.05 and PANC-1 cells, indicated concentrations
# [4] = test system: MIA PaCa-2 cells; assay: TMT MS-based global proteomic study in MIA PaCa-2 cells; format: cell-based, human; conditions: 1.5 μM, 2 h, 4040 quantified proteins, cutoff P value less than 0.01, Log2 fold change greater than 0.5
# [5] = test system: PDAC cell lines including MIA PaCa-2, BxPC-3, HPAF-II, Panc10.05, and PANC-1; assay: Antiproliferative activity in PDAC cell lines; format: cell-based, human
# [6] = Mouse PK study; conditions: 75 mg/kg
# [7] = biological target: T1, WDR5; conditions: MIA PaCa-2 cells
# [8] = biological target: T1, WDR5; assay: Isothermal titration calorimetry; format: binding
# [9] = biological target: T1, WDR5; assay: Western blotting of WDR5 protein levels in MV4; conditions: MV4;11 cells
# [10] = biological target: IKZF1 (Homo sapiens, UniProt Q13422); assay: Western blotting of IKZF1 protein levels in MV4; conditions: MV4;11 cells
# Sequence of IKZF1 (Q13422 whole entry): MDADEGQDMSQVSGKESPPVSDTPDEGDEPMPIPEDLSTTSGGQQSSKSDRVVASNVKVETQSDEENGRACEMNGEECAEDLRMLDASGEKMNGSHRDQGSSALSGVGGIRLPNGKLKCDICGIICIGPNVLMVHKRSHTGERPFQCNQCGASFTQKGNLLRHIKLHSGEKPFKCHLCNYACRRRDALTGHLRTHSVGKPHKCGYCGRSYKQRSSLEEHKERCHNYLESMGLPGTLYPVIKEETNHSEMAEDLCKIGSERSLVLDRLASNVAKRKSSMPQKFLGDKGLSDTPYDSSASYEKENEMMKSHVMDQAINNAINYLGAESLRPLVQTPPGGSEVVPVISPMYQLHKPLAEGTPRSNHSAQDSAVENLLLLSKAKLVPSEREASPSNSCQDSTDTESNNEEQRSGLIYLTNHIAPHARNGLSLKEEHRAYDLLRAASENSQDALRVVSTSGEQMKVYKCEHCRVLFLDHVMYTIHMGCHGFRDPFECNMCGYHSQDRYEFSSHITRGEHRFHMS
# [11] = biological target: LIMD1 (Homo sapiens, UniProt Q9UGP4); assay: Western blotting of LIMD1 protein levels in MV4; conditions: MV4;11 cells, 0.1 and 0.5 μM, 18 h (Figure 5A)
# Sequence of LIMD1 (Q9UGP4 whole entry): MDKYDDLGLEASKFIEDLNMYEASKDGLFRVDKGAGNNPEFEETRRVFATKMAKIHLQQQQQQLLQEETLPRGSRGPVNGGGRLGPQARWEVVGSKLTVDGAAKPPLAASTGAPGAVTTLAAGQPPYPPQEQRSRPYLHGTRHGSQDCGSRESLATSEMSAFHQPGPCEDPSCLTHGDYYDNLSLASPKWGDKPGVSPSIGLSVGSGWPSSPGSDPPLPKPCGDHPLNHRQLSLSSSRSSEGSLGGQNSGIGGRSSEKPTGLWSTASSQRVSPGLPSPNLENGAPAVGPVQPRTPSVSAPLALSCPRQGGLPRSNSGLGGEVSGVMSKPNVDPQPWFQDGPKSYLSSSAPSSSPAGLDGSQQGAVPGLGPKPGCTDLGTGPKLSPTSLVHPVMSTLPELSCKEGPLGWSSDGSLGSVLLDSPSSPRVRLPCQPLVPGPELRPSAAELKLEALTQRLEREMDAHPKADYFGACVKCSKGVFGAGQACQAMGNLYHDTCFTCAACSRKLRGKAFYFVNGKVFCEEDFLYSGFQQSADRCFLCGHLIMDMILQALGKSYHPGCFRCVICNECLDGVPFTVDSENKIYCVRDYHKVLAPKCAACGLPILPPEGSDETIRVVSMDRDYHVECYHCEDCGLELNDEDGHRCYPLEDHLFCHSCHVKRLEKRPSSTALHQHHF
# [12] = biological target: WDR5 K296R (Homo sapiens, UniProt P61964, K296R); assay: Immunoblot of WDR5 K296R mutant degradation in HEK293T cells; format: cell-based; conditions: HEK293T cells overexpressing K296R (Dox), indicated concentrations, 3 days
# [13] = test system: PDAC cell lines including MIA PaCa-2, BxPC-3, HPAF-II, Panc10.05, and PANC-1; conditions: previously reported; cited from earlier work
# [14] = 0.1 and 0.5 μM, 18 h (Figure 5A)
# [15] = indicated concentrations, 18 h (Figure 5C)
# [16] = indicated concentrations, 18 h (Figure 5B)
# Sequence of VCB E3 ligase complex (Q15369 whole entry): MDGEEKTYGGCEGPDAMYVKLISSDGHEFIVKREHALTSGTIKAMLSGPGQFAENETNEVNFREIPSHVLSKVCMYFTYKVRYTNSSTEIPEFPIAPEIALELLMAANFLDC
# Sequence of VCB E3 ligase complex (Q15370 1-104, further chain): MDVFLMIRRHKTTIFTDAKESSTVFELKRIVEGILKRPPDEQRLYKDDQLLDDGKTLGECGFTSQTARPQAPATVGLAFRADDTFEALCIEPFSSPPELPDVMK
# Sequence of VCB E3 ligase complex (P40337 54-213): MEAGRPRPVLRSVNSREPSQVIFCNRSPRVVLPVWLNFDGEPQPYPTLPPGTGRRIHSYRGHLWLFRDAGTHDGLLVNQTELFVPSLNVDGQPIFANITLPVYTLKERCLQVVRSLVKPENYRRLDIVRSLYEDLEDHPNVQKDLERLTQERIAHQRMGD
smiles,measurement,setting,value
"Cc1ncsc1-c1ccc(CNC(=O)[C@@H]2C[C@@H](O)CN2C(=O)[C@@H](NC(=O)CNC(=O)c2ccc(F)c(-c3ccc(N4C[C@@H](C)N(C)[C@@H](C)C4)c(NC(=O)c4c[nH]c(=O)cc4C(F)(F)F)c3)c2)C(C)(C)C)cc1 [Compound 11, N-(2′-Fluoro-5′-((2-(((S)-1-((2S,4R)-4-hydroxy-2-((4-(4-methylthiazol-5-yl)benzyl)carbamoyl)pyrrolidin-1-yl)-3,3-dimethyl-1-oxobutan-2-yl)amino)-2-oxoethyl)carbamoyl)-4-((3S,5R)-3,4,5-trimethylpiperazin-1-yl)-[1,1′-biphenyl]-3-yl)-6-oxo-4-(trifluoromethyl)-1,6-dihydropyridine-3-carboxamide]",Kd,[1],534 ± 48 nM
same,Binding cooperativity α = KD (binary)/KD (ternary),[2],2.30
same,WDR5 degradation (WB),[3],induced WDR5 degradation in a concentration-dependent manner
same,Hook effect in WDR5 degradation,"[3]; PDAC cells, concentrations up to 50 μM",no “hook effect” observed
same,Proteome-wide degradation selectivity,[4],WDR5 is the only protein whose abundance was significantly decreased
same,GI50,"[5]; Homo sapiens, 144 h",4000 to 32000 nM
same,Tmax,"[6]; male, Swiss albino, mouse, plasma, ip",30 min
same,Clinical signs during the PK study,"[6]; mice, single IP injection",no clinical signs were observed
same,Plasma concentration maintained for the initial 4 h,"[6]; mice, single IP injection",around 1 μM
same,Plasma concentration maintained over 12 h,"[6]; mice, single IP injection",above 100 nM
same,Time at which maximal WDR5 degradation achieved,[7]; 0.1 μM,24 h
same,Time at which significant WDR5 reduction observed,[7]; 0.1 μM,2 h
same,WDR5 protein levels (WB verification for proteomics),"[7]; 1.5 μM, 2 h (Figure S5)",significantly reduced WDR5 protein levels
same,WDR5 protein levels (WB),"[7]; 0.1 and 0.5 μM, 18 h (Figure 3)",effectively decreased the WDR5 protein levels
"Cc1ncsc1-c1ccc(CNC(=O)[C@H]2C[C@H](O)CN2C(=O)[C@@H](NC(=O)CNC(=O)c2ccc(F)c(-c3ccc(N4C[C@@H](C)N(C)[C@@H](C)C4)c(NC(=O)c4c[nH]c(=O)cc4C(F)(F)F)c3)c2)C(C)(C)C)cc1 [Compound 27, N-(2′-Fluoro-5′-((2-(((S)-1-((2R,4S)-4-hydroxy-2-((4-(4-methylthiazol-5-yl)benzyl)carbamoyl)pyrrolidin-1-yl)-3,3-dimethyl-1-oxobutan-2-yl)amino)-2-oxoethyl)carbamoyl)-4-((3S,5R)-3,4,5-trimethylpiperazin-1-yl)-[1,1′-biphenyl]-3-yl)-6-oxo-4-(trifluoromethyl)-1,6-dihydropyridine-3-carboxamide]",KD to VCB (ITC),"[1]; mean ± SD, three independent experiments",did not display any noticeable binding to VCB
same,Kd,[8],106 ± 43 nM
same,WDR5 degradation (WB),[3],unable to degrade WDR5 in all tested pancreatic cancer cells
same,Antiproliferative activity,"[5]; PDAC cells, 6 day treatment",lack of antiproliferative activity
"CN1CCN(c2ccc(-c3cccc(CN4CCN(CCNC(=O)CCCCNC(=O)COc5cccc6c5C(=O)N(C5CCC(=O)N(C)C5=O)C6=O)CC4)c3)cc2NC(=O)c2c[nH]c(=O)cc2C(F)(F)F)CC1 (centres unmarked) [Compound 24, N-(3′-((4-(2-(5-(2-((2-(1-Methyl-2,6-dioxopiperidin-3-yl)-1,3-dioxoisoindolin-4-yl)oxy)acetamido)pentanamido)ethyl)piperazin-1-yl)methyl)-4-(4-methylpiperazin-1-yl)-[1,1′-biphenyl]-3-yl)-6-oxo-4-(trifluoromethyl)-1,6-dihydropyridine-3-carboxamide]",WDR5 protein levels (WB),[9]; [14],"did not have an effect on the protein levels of WDR5, IKZF1, and LIMD1"
same,IKZF1 protein levels (WB),[10]; [14],"did not have an effect on the protein levels of WDR5, IKZF1, and LIMD1"
same,LIMD1 protein levels (WB),[11],"did not have an effect on the protein levels of WDR5, IKZF1, and LIMD1"
"CN1CCN(c2ccc(-c3cccc(CN4CCN(CCNC(=O)CCCCCCCNC(=O)COc5cccc6c5C(=O)N(C5CCC(=O)NC5=O)C6=O)CC4)c3)cc2NC(=O)c2c[nH]c(=O)cc2C(F)(F)F)CC1 (centres unmarked) [Compound 21, N-(3′-((4-(2-(8-(2-((2-(2,6-Dioxopiperidin-3-yl)-1,3-dioxoisoindolin-4-yl)oxy)acetamido)octanamido)ethyl)piperazin-1-yl)methyl)4-(4-methylpiperazin-1-yl)-[1,1′-biphenyl]-3-yl)-6-oxo-4-(trifluoromethyl)-1,6-dihydropyridine-3-carboxamide]",Effectiveness in downregulating WDR5 protein levels relative to other degraders,[9]; [14],slightly more effective than MS40 and 23
same,WDR5 protein levels (WB),[9]; [14],effectively downregulated WRD5 protein levels
same,WDR5 protein levels (WB),[7]; [15],effectively reduced the cellular WDR5 protein levels
same,IKZF1 protein levels (WB),[10]; [14],completely ineffective in degrading neo-substrate IKZF1
same,LIMD1 protein levels (WB),[11],"completely ineffective in degrading neo-substrate IKZF1, and protein LIMD1"
Cc1ncsc1-c1ccc([C@H](C)NC(=O)[C@@H]2C[C@@H](O)CN2C(=O)[C@@H](NC(=O)CNC(=O)c2ccc(F)c(-c3ccc(N4C[C@@H](C)N(C)[C@@H](C)C4)c(NC(=O)c4c[nH]c(=O)cc4C(F)(F)F)c3)c2)C(C)(C)C)cc1 [MS67],Degradation of WDR5 K296R mutant,[12],resistant to the MS67 treatment
"C[C@@H]1CN(c2ccc(-c3cc(C(=O)NCCCCCCCNC(=O)COc4cccc5c4C(=O)N(C4CCC(=O)NC4=O)C5=O)ccc3F)cc2NC(=O)c2c[nH]c(=O)cc2C(F)(F)F)C[C@H](C)N1C (stereo partly drawn) [Compound 25, N-(5′-((7-(2-((2-(2,6-Dioxopiperidin-3-yl)-1,3-dioxoisoindolin-4-yl)oxy)acetamido)heptyl)carbamoyl)-2′-fluoro-4-((3S,5R)-3,4,5-trimethylpiperazin-1-yl)-[1,1′-biphenyl]-3-yl)-6-oxo-4-(trifluoromethyl)-1,6-dihydropyridine-3-carboxamide]",WDR5 protein levels (WB),[7]; [15],effectively reduced the cellular WDR5 protein levels
same,IKZF1 protein levels (WB),[10]; [16],had no effect on IKZF1 protein levels
"CN1CCN(c2ccc(-c3cccc(CN4CCN(CCNC(=O)CCCCCCCNC(=O)COc5cccc6c5C(=O)N(C5CCC(=O)N(C)C5=O)C6=O)CC4)c3)cc2NC(=O)c2c[nH]c(=O)cc2C(F)(F)F)CC1 (centres unmarked) [Compound 22, N-(3′-((4-(2-(8-(2-((2-(1-Methyl-2,6-dioxopiperidin-3-yl)-1,3-dioxoisoindolin-4-yl)oxy)acetamido)octanamido)ethyl)piperazin-1-yl)methyl)-4-(4-methylpiperazin-1-yl)-[1,1′-biphenyl]-3-yl)-6-oxo-4-(trifluoromethyl)-1,6-dihydropyridine-3-carboxamide]",WDR5 protein levels (WB),[9]; [14],"did not have an effect on the protein levels of WDR5, IKZF1, and LIMD1"
same,IKZF1 protein levels (WB),[10]; [14],"did not have an effect on the protein levels of WDR5, IKZF1, and LIMD1"
same,LIMD1 protein levels (WB),[11],"did not have an effect on the protein levels of WDR5, IKZF1, and LIMD1"
CN1CCN(c2ccc(-c3cccc(CN4CCOCC4)c3)cc2NC(=O)c2c[nH]c(=O)cc2C(F)(F)F)CC1 [OICR-9429],Antiproliferative activity,[13],lack of antiproliferative activity
"CN1CCN(c2ccc(-c3cccc(CN4CCN(CCNC(=O)CCCCNC(=O)COc5cccc6c5C(=O)N(C5CCC(=O)NC5=O)C6=O)CC4)c3)cc2NC(=O)c2c[nH]c(=O)cc2C(F)(F)F)CC1 (centres unmarked) [Compound 23, N-(3′-((4-(2-(5-(2-((2-(2,6-Dioxopiperidin-3-yl)-1,3-dioxoisoindolin-4-yl)oxy)acetamido)pentanamido)ethyl)piperazin-1-yl)methyl)-4-(4-methylpiperazin-1-yl)-[1,1′-biphenyl]-3-yl)-6-oxo-4-(trifluoromethyl)-1,6-dihydropyridine-3-carboxamide]",WDR5 protein levels (WB),[9]; [14],to a less extent effectively downregulated WRD5 protein levels
same,IKZF1 protein levels (WB),[10]; [14],completely ineffective in degrading neo-substrate IKZF1
same,LIMD1 protein levels (WB),[11],"completely ineffective in degrading neo-substrate IKZF1, and protein LIMD1"
"C[C@@H]1CN(c2ccc(-c3cc(C(=O)NCCCCCCCNC(=O)COc4cccc5c4C(=O)N(C4CCC(=O)N(C)C4=O)C5=O)ccc3F)cc2NC(=O)c2c[nH]c(=O)cc2C(F)(F)F)C[C@H](C)N1C (stereo partly drawn) [Compound 26, N-(2′-Fluoro-5′-((7-(2-((2-(1-methyl-2,6-dioxopiperidin-3-yl)-1,3-dioxoisoindolin-4-yl)oxy)acetamido)heptyl)carbamoyl)-4-((3S,5R)-3,4,5-trimethylpiperazin-1-yl)-[1,1′-biphenyl]-3-yl)-6-oxo-4-(trifluoromethyl)-1,6-dihydropyridine-3-carboxamide]",WDR5 protein levels (WB),"[9]; indicated concentrations, 18 h (Figures 5B and S1)",did not affect the protein levels of WDR5 and IKZF1
same,IKZF1 protein levels (WB),[10]; [16],did not affect the protein levels of WDR5 and IKZF1
